Results published in patent publication US9910031B2, “Compositions and methods for modulating c-Rel-dependent cytokine production” (Synta Pharmaceuticals Corporation, priority 2003, dated 2018).

Legend:
[1] = tested on: human IL-12 p35 promoter; assay: IL-12 p35 promoter/luciferase reporter in transiently transfected RAW264.7 cells; type: cell-based, murine; details: for p35 promoter-driven luciferase expression: RAW264.7, IFN-γ/LPS or IFN-γ/SAC
Experimental: (§1) As a result of the Northern blot findings, we undertook a study of the p35 and p40 promoter activities. We transiently transfected the murine macrophage cell line RAW264.7 with DNA constructs in which the p35 and p40 promoters directed expression of the luciferase reporter gene. The RAW264.7 cell line was obtained from American Type Culture Collection (Manassas, Va.) and was cultured in DMEM (ATCC, Manassas, Va.) supplemented with 10% FCS (ATCC, Manassas, Va.), and 1% penicillin/Streptomycin (Gibco-BRL, New York, N.Y.).
Both p35 and p40 promoter-driven luciferase production in response to stimulation were determined in the presence or absence of Compound 1 and Compound 2. To construct the human IL-12 p35 and p40 promoter/luciferase reporter constructs, we generated p35 (−1.5 kb to +3 bp) and p40 (−1.3 kb to +56 bp) promoter fragments, which contained several sequence motifs of the human IL-12 p35 and p40 genes. The fragments were generated by PCR from genomic DNA obtained from human PBMC using primers as follows: IL-12 p35 1.5 kb-F: 5′-[…]-3′(SEQ ID NO:3) and IL-12 p35 1.5 kb-R: 5′-[…]-3′ (SEQ ID NO:4); IL-12 p40 −1.3 kb-F: 5′-[…]-3′ (SEQ ID NO:5) and IL-12 p40 1.3 kb-R: 5′-[…]-3′ (SEQ ID NO:6). The deletion in the p40 promoter reporter constructs were generated by PCR with primers as follows: IL-12 p40 −250 bp to +56 bp (p40/−250 bp) F: 5′-[…]-3′(SEQ ID NO:7) and IL-12 p40 −250 bp to +56 bp (p401/−250 bp) R: 5′-TGCTCTGGGCAGGACGGAG-3′ (SEQ ID NO:8); IL-12 p40 −150 bp to +56 bp (p40/−150 bp) F: 5′-[…]-3′ (SEQ ID NO:9) and IL-12 p40 −150 bp to +56 bp (p40/−150 bp) R: 5′-TGCTCTGGGCAGGACGGAG-3′(SEQ ID NO:10). […]
Cells were co-transfected with the vector pCMV (BD Biosciences Clontech) in which the constitutively active CMV promoter directs β-galactosidase expression for the monitoring of transfection efficiency. Luciferase and β-galactosidase activity were determined in cell extracts prepared according to the Luciferase assay system (Promega) and Luminescent n-gal Detection system (BD Biosciences Clontech). […]

[2] = tested on: human IL-12 p40 promoter; assay: IL-12 p40 promoter/luciferase reporter in transiently transfected RAW264.7 cells; type: cell-based, murine; details: for p40 promoter-driven luciferase expression: RAW264.7, IFN-γ/LPS or IFN-γ/SAC
Experimental: as §1
Both p35 and p40 promoter-driven luciferase production in response to stimulation were determined in the presence or absence of Compound 1 and Compound 2. To construct the human IL-12 p35 and p40 promoter/luciferase reporter constructs, we generated p35 (−1.5 kb to +3 bp) and p40 (−1.3 kb to +56 bp) promoter fragments, which contained several sequence motifs of the human IL-12 p35 and p40 genes. The fragments were generated by PCR from genomic DNA obtained from human PBMC using primers as follows: IL-12 p35 1.5 kb-F: 5′-[…]-3′(SEQ ID NO:3) and IL-12 p35 1.5 kb-R: 5′-[…]-3′ (SEQ ID NO:4); IL-12 p40 −1.3 kb-F: 5′-[…]-3′ (SEQ ID NO:5) and IL-12 p40 1.3 kb-R: 5′-[…]-3′ (SEQ ID NO:6). The deletion in the p40 promoter reporter constructs were generated by PCR with primers as follows: IL-12 p40 −250 bp to +56 bp (p40/−250 bp) F: 5′-[…]-3′(SEQ ID NO:7) and IL-12 p40 −250 bp to +56 bp (p401/−250 bp) R: 5′-TGCTCTGGGCAGGACGGAG-3′ (SEQ ID NO:8); IL-12 p40 −150 bp to +56 bp (p40/−150 bp) F: 5′-[…]-3′ (SEQ ID NO:9) and IL-12 p40 −150 bp to +56 bp (p40/−150 bp) R: 5′-TGCTCTGGGCAGGACGGAG-3′(SEQ ID NO:10). The resulting PCR products were ligated upstream of the luciferase gene in pGL3-Basic vector (Promega). All constructs were verified by DNA sequencing.
Transfection was accomplished using SuperFect Transfection Reagent (Qiagen) by the described protocol. Total amount of transfect DNA was kept constant by including the respective control plasmids without insertions.
Cells were co-transfected with the vector pCMV (BD Biosciences Clontech) in which the constitutively active CMV promoter directs β-galactosidase expression for the monitoring of transfection efficiency. Luciferase and β-galactosidase activity were determined in cell extracts prepared according to the Luciferase assay system (Promega) and Luminescent n-gal Detection system (BD Biosciences Clontech). Luciferase activity was then normalized using the β-galactosidase value. […] ELISA was performed by the following method. Human IL-12 p70 (heterodimer) was assayed using ELI-PAIR kit from Cell Sciences (Norwood, Mass.), according to the manufacturer's instructions. Human IL-12 p40 was assayed using ELISA kit from Cell Sciences (Norwood, Mass.) according to the manufacturer's instructions.
We then set out to analyze the IL-12 transcriptional promoter elements that played a role in this effect. We performed deletion analyses using the p40 promoter. This promoter, rather than the p35 promoter, was chosen because the transcriptional elements are better defined in the p40 promoter. To identify the IL-12 inhibitor responsive elements involved in the p40 gene transcription activation, three different promoters were constructed and transiently transfected into RAW264.7 cells.
To assess the role of individual p40 promoter transcription elements in more detail, mutations within many of these elements have been generated. […]

[3] = tested on: ICSBP; assay: Western blot of ICSBP in THP-1 nuclear extracts (Ets-2 DNA element beads); type: cell-based, human
Source text: Of the transcription factors that have been analyzed, two factors, ICSBP and c-Rel, seem to be affected by Compound 1/Compound 2 treatment. ICSBP binds indirectly to the Ets-2 site. The primary NFκB trans-activator for IL-12 is the c-Rel/p50 heterodimer. Other dimers (p65/p50 and p50/p50) either lack activity or have inhibitory functions. Thus, c-Rel plays a role in IL-12 transcription as a result of both activation through NFκB and its interaction with ICSBP. […] The membranes were blocked with 5% milk in TBST buffer and then incubated with anti-c-Rel, anti-p65, anti-p50, anti-ICSBP or anti-PU-1 antibody (all the antibodies were purchased from Santa Cruz) at a dilution of 1:500 for 1 h at room temperature or overnight at 4° C. The membranes were washed and incubated with Horseradish Peroxidase-conjugated anti-rabbit IgG or anti-mouse IgG (Amersham, England) at a dilution of 1:2000 at room temperature for 1 h.
The transcription factor ICSBP binds to the Ets-2 element indirectly through binding to PU-1. Nuclear extracts were bound to Ets-2 DNA element beads, the beads isolated to separate bound from free protein, and the proteins analyzed on Western blots using antibodies to either ICSBP or PU-1. Conjugation of Ets-2 DNA to beads was accomplished by the following method. Biotinylated DNA fragment encompassing the IL-12 p40 Ets-2 site (−292 to −196) were synthesized from the 1.3 kb wild-type human IL-12 p40 reporter by PCR using a biotinylated primer as detailed in The Journal of Immunology, 2000, vol 165. pages 271-279. PCR products were purified by the Qiaquick Kit (Qiagen, Chatsworth, Calif.). Two μg of biotinylated DNA were conjugated to 100 μl of streptavidin-hound magnetic beads (Dynabeads, M280, Dynal, Lake Success, N.Y.) in buffer containing 10 mM Tris-HCL, pH 8.0, 1 mM EDTA, 0.1 M NaCl. […] Eluted materials were separated by 10% SDS-PAGE and detected by immunoblot analysis using anti-ICSBP or anti-PU-1 antibody.

SMILES	p35 promoter-driven luciferase expression [1]	p40 promoter-driven luciferase expression [2]	IL-12 p40 promoter-driven luciferase activity, deletion construct ([2]; RAW264.7, IFN-γ/LPS, promoter containing Ets-2, PU-1, NF-κB and API elements)	amount of ICSBP protein in nuclear extracts (FIG. 5) ([3]; THP-1 cells)	p35 promoter-driven luciferase expression, comparison between compounds ([1]; RAW264.7, stimulated by IFN-γ/LPS, Compound 2 compared with Compound 1)	effect of ICSBP over-expression on inhibition of p40 expression ([2]; co-transfection of ICSBP with IL-12 promoter-Luc reporter)	inhibition of expression in NFκB-element mutant p40 promoter construct ([2]; site-directed mutant of the NFκB element, IFN-γ/LPS)	ICSBP expression [3]	ICSBP in the nuclei of treated cells [3]
C(=NNc1nc(OCCc2ccccn2)nc(N2CCOCC2)n1)c1c[nH]c2ccccc12 [Compound 1, N-(1H-indol-3-ylmethylene)-N′-[4-morpholin-4-yl-6-(2-pyridin-2-yl-ethoxy)-[1,3,5]triazin-2-yl]-hydrazine]	suppressed	suppressed	significantly suppressed	significant reduction					
Cc1cccc(C=NNc2cc(N3CCOCC3)nc(OCCc3ccccn3)n2)c1 [Compound 2, N-(3-methyl-benzylidene)-N′-[6-morpholin-4-yl-2-(2-pyridin-2-yl-ethoxy)-pyrimidin-4-yl]-hydrazine]	suppressed	suppressed			inhibited more effectively	decreased the inhibition	reduced	reduced	reduced
